Experiments:
[1] = target: Chymotrypsinogen A (Bos taurus) (UniProt P00766); assay: Compound was tested for inhibitory activity against alpha-chymotrypsin
[2] = target: Chymotrypsinogen A (Bos taurus) (UniProt P00766); assay: Compound was tested for inhibitory activity towards alpha-chymotrypsin expressed as second order rate constant values
[3] = target: T1, Chymotrypsin-like elastase family member 2A (Sus scrofa) (UniProt P08419); assay: Compound was tested for inhibitory activity toward porcine pancreatic elastase.
T1 sequence (whole entry): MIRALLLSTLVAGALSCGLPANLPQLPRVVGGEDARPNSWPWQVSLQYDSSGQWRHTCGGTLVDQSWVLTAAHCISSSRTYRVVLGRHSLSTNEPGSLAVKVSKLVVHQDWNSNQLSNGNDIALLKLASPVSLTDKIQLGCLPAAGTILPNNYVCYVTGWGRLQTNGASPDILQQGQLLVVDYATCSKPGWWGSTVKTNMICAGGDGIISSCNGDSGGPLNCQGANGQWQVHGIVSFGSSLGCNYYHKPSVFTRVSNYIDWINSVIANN

[4] = target: T1, Chymotrypsin-like elastase family member 2A (Sus scrofa); assay: Compound was tested for inhibitory activity toward porcine pancreatic elastase expressed as second order rate constant values: No inactivation
[5] = target: Chymotrypsinogen A (Bos taurus) (UniProt P00766); assay: Compound was tested for inhibitory activity towards alpha-chymotrypsin expressed as second order rate constant values
[6] = target: Chymotrypsinogen A (Bos taurus) (UniProt P00766); assay: Compound was tested for inhibitory activity against alpha-chymotrypsin
[7] = target: Chymotrypsinogen A (Bos taurus) (UniProt P00766); assay: Compound was tested for inhibitory activity towards alpha-chymotrypsin expressed as second order rate constant values; No inactivation

Compound | Concentration [1] | k obs / concentration [2] | Concentration [3] | k obs / concentration [4] | k obs / concentration [5] | Concentration [6] | k obs / concentration [7]
CC(=O)N[C@H](/C=C/CCl)Cc1ccccc1 | 0.476 mM | 0.8 M⁻¹ s⁻¹ |  |  |  |  | 
O=C(CNC(=O)OCc1ccccc1)NCC(=O)N[C@H](/C=C/CBr)Cc1ccccc1 |  |  | 15 µM | No inactivation | 1240 M⁻¹ s⁻¹ | 7 µM | 
CC(=O)N[C@H](/C=C/CBr)Cc1ccccc1 |  |  | 101 µM | No inactivation | 14 M⁻¹ s⁻¹ | 101 µM | 
O=C(CNC(=O)OCc1ccccc1)N[C@H](/C=C/CF)Cc1ccccc1 | 1.05 mM |  |  |  |  |  | No inactivation
O=C(CNC(=O)OCc1ccccc1)NCC(=O)N[C@H](/C=C/CCl)Cc1ccccc1 |  |  | 97 µM | No inactivation | 61 M⁻¹ s⁻¹ | 17 µM | 
O=C(CNC(=O)OCc1ccccc1)NCC(=O)N[C@H](/C=C/CF)Cc1ccccc1 | 4.4 mM |  |  |  |  |  | No inactivation
CC(=O)N[C@H](/C=C/CF)Cc1ccccc1 | 13.5 mM |  |  |  |  |  | No inactivation
O=C(CNC(=O)OCc1ccccc1)N[C@H](/C=C/CCl)Cc1ccccc1 |  |  | 600 µM | No inactivation | 12 M⁻¹ s⁻¹ | 28 µM | 
O=C(CNC(=O)OCc1ccccc1)N[C@H](/C=C/CBr)Cc1ccccc1 |  |  | 25 µM | No inactivation | 215 M⁻¹ s⁻¹ | 25 µM | 

Reference: ChEMBL document CHEMBL1128956, “Irreversible inhibitions of serine proteases by peptidyl allylic halide derivatives” (Bioorg Med Chem Lett, 1996)
